Test results taken from patent US20080057055A1, “OLD-35 as an inflammatory agent” (priority 2004, published 2008).

Legend:
Assay type in all cases: cell-based, human
[1] = test system: hPNPase^OLD-35 and Myc proteins; assay: Western blot after IFN-β treatment or siRNA
HO-1 cells [2] = assay: MTT cell viability assay; details: HO-1 clones, more pronounced after 6 days
Method: (§1) Transfection of siRNA: Cells (5×10^5) were plated in a 6 cm dish and the next day were transfected with 25 nM of either control siRNA or c-myc siRNA (Ambion; catalogue# 4250) using Lipofectamine 2000 (Invitrogen) according to the Manufacturer's protocol. After 24 h, the cells were trypsinized and seeded into 96-well plates for cell viability assays and 6-cm dishes for colony formation assays and cell cycle analyses as described above.

HO-1 cells [3] = assay: Colony formation assay with IFN-β; details: HO-1 clones
Method: as §1

[4] = test system: HO-1, WM-35, MeWo and FM-516 cells; assay: Cell cycle analysis by flow cytometry after IFN-β; details: HO-1 clones, IFN-β 1000 U/ml
Method: Cell Cycle Analysis: Cells were harvested, washed in PBS and fixed overnight at −20° C. in 70% ethanol. The cells were treated with RNase A (1 mg/ml) at 37° C. for 30 min and then with propidium iodide (50 μg/ml). Cell cycle was analyzed using a FACScan flow cytometer and data were analyzed using CellQuest software (Becton Dickinson, San Jose, Calif.).

c-myc mRNA = assay: Half-life of c-myc mRNA (Actinomycin D, Northern blot); details: HO-1 clones expressing the siRNA, compared to control untreated cells
Method: RNA Isolation and Northern Blot Analysis: Total RNA was extracted from cells using Qiagen RNeasy mini kit (Qiagen) according to the manufacturer's protocol and Northern blotting was performed as described (102). The cDNA probes used were a 400-bp fragment from human c-myc, a 500-bp fragment from hPNPase^old-35 and full-length human GAPDH.

For “hPNPase^old-35-siRNA: lentivirus-expressed siRNA for hPNPase^old-35, sequence 5′ AACAAAACCTTCCCCTTCCCA 3′ (SEQ ID NO:40)”, which “inhibition in hPNPase^OLD-35 induction by IFN-β” value ([1]; HO-1 clone 1 expressing the siRNA, IFN-β 1000 U/ml, 2 days) is on record?
The value was about 100%.

What about the “ability to downregulate Myc in response to IFN-β” value ([1]; HO-1 clones 1, 4 and 5 expressing the siRNA) of the same substance?
The value was “lost this ability”.

What about the “response of siRNA expressing clones to IFN-β (MTT)” value (HO-1 cells [2]) of the same substance?
Its value is “significant resistance”.

What about the “response of siRNA expressing clones to IFN-β-induced inhibition of colony formation” value (HO-1 cells [3]) of the same substance?
Its value is “significant resistance”.

What about the “response of siRNA expressing clones to growth inhibition by IFN-β (cell cycle)” value [4] of the same substance?
The value was “remarkable resistance”.

What about the “half-life of c-myc mRNA after IFN-β” value (c-myc mRNA) of the same substance?
The value was “remained unchanged”.
